{"source": "patent US8241681B2", "about": "“Synergistic mixtures of bisabolol and ginger extract” (Symrise AG, priority 2005, dated 2012)", "test_system": "erythema raised by 24-hour occlusive treatment with SDS (sodium dodecyl sulfate), inside under-arm skin", "assay": "SDS inflammation test (SDS irritation study), reduction in reddening of the skin", "type": "in vivo, human", "settings": "after 3 days", "method": "The SDS inflammation test was used as the test model. The study was conducted on the inside under-arm of 20 subjects (9 female, 11 male, age: 24-62 years). The reddening of the skin was recorded with a Minolta-Chromameter CR 300 via the a* value of the La′b′ colour system, which describes the position on the red-green axis. The measurements were taken before and 4-6 hours after raising the erythema by 24-hour occlusive treatment with SDS (sodium dodecyl sulfate). The skin was then treated with the test formulation in question 2 times daily for 3 days. 4-6 h after the last application on day 3, the reddening of the skin was determined and the reduction in reddening was calculated from this.\nFor the study, a defined amount of the active compound combination C according to the invention was incorporated into an O/W emulsion. For comparison purposes, the comparison active compounds A and B were incorporated into separate O/W emulsions.\nExtrapon Ginger (Symrise) comprising 1% of ginger CO2 extract, characterized by 25-33% in total of piquant substances with gingerols, shogaols (<3%) and zingerone (<0.5%) and 38-46% of steam-volatile constituents was employed as comparison active compound A.\nCalculation of the synergy index (SI) value according to Kull for the reduction in reddening in the SDS inflammation test for a mixture of bisabolol and ginger extract after a treatment time of 3 days: […]", "data": [{"smiles": "CC(C)=CCC[C@](C)(O)[C@@H]1CC=C(C)CC1", "note": "[Formulation with active compound B, -(-Alpha-)-Bisabolol, natural]", "values": [{"measurement": "Reduction in reddening relative to the start conditions (a* value)", "setting": "O/W emulsion applied 2 times daily, 20 subjects, Minolta-Chromameter CR 300, Example 11", "result": 2.42}, {"measurement": "Placebo-corrected reduction in reddening (a* value)", "setting": "reduction in reddening active compound minus reduction in reddening placebo, Example 11", "result": 1.02}]}]}
